Data from PMC11497074 (RSC Advances, 2024).

Biological target: CA IX (Homo sapiens, UniProt Q16790)
Test: biochemical

IC50: 548 ± 35.7 nM
SMILES: O=c1ccc2ccc(O[C@@H]3O[C@H](CO)[C@@H](O)[C@H](O)[C@H]3O)cc2o1 [Skimmin, skimmin]
